Test results taken from PMC12039421 (Animal Cells and Systems, 2025).

Key:
[1] = biological target: human ERβ-LBD (Homo sapiens, UniProt Q92731); experiment: Isothermal titration calorimetry; assay type: binding
[2] = biological target: T1, human ERα-LBD (Homo sapiens, UniProt P03372); experiment: biochemical; assay type: binding
T1 sequence (P03372 304-554): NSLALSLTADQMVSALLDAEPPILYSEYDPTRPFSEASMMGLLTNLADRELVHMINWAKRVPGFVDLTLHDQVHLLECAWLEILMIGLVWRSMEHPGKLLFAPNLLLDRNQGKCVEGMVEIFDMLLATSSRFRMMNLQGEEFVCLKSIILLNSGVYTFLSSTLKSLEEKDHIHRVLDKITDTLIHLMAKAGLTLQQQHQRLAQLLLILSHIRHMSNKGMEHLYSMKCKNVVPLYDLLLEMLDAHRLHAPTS

[3] = system: ERα; conditions: cited from earlier work
[4] = system: ERα; conditions: ref ICCVAM [2003]; cited from earlier work
[5] = ITC, 25 °C, one binding site model

Chain of human ERβ-LBD (Q92731 264-498): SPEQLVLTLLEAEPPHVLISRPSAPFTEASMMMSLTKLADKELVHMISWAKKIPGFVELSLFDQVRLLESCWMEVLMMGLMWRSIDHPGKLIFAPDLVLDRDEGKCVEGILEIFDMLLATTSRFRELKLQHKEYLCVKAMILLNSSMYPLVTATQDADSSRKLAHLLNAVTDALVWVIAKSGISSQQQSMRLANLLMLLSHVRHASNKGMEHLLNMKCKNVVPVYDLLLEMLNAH

Q: Which Kd [1] does the source give for `CC(C)(C)CC(C)(C)c1ccc(O)cc1` [4-tert-Octylphenol] here?
A: 15.9 µM

Q: For `CCC(C)(c1ccc(O)cc1)c1ccc(O)cc1` [Bisphenol B], which Kd [1] is on record?
A: 51.3 µM

Q: What about the Kd [2] of the same compound?
A: 112 µM

Q: With `CC(C)C(=O)Nc1ccc([N+](=O)[O-])c(C(F)(F)F)c1` [Flutamide] as the compound, how does the “Kd (ER β)” value [1, 5] read?
A: no binding

Q: What about the “Kd (ER α)” value [2, 5] of the same compound?
A: no binding

Q: And the “activity in previous TG 455 (in words)” value ([3]; previous TG 455, ref Zacharia [2017])?
A: no activity

Q: For `C[C@]12CC[C@H]3[C@@H](CCC4=CC(=O)CC[C@@]43C)[C@@H]1CC[C@@H]2O` [testosterone], which “ER binding in TG 493 (in words)” value [4] is on record?
A: may bind to the ER

Q: And the “transcriptional response in TG 455 (in words)” value ([3]; ref ICCVAM [2003])?
A: fails to induce downstream transcriptional responses
